Source: US10010581B2, “Syndecan peptides and polypeptides and uses thereof” (Wisconsin Alumni Research Foundation, priority 2012, dated 2018)
Where no end group is shown, it is not given here.

How the values were obtained:
Type in all cases: cell-based, human
[1] = test system: HaCat keratinocytes or MCF10A mammary epithelial cells; assay: competition of LPA-induced haptotactic migration by GST fusion proteins or synthetic peptides (FIG. 10 summary); details: 0.1 to 30 μM, 3 μM LPA
Experimental: FIGS. 10A-C. Schematic summary of experiments using either recombinant GST fusion proteins or synthetic peptides to disrupt Sdc1-dependent coupling of HER2 to α6β4 integrin necessary for LPA-induced haptotactic migration. GST-fusion proteins or synthetic peptides were added at concentrations ranging from 0.1 to 30 μM to the culture medium of human HaCat keratinocytes or MCF10A mammary epithelial cells in the presence or absence of 3 μM LPA. The ability of the constructs to inhibit the migration of the cells to close a scratch wound in confluent monolayers was determined and expressed as the concentration of inhibitor necessary to cause 50% inhibition of cell migration. (FIG. 10A) Competition using recombinant GST-fusion proteins. GST-Sdc1 fusion proteins bearing truncations or mutations were assessed for their competitive activity. […] (FIG. 10B) Competition with synthetic peptides. Peptides were purchased from commercial sources for testing as a putative synstatin inhibitory peptide (SSTNHER2). […] (FIG. 10C) Schematic representation of the active site in Sdc1. The active site is shown as a juxtamembrane site in the ectodomain of Sdc1. TM is the transmembrane domain and CYTO is the cytoplasmic domain. The sequence of a peptide derived from this site (SSTNHER2) is shown along with its homology across other mammalian Sdc1 species. The human STTNHER2 sequence is SEQ ID NO:23; the homology for STTNHER2 across mammals is SEQ ID NO:24.
(§1) HaCat or MCF10A cells were grown to confluence on 48 well-plates were starved for 6 hr by serum deprivation followed by introduction of a scratch wound in the monolayer using 200 μl pipette tip. Cells were cultured an additional 18 hr in DMEM containing mAb 3E1 (10 μg/ml) and goat anti-mouse IgG (50 μg/ml), EGF (10 ng/ml) or HGF (20 ng/ml) to cause cell migration in the presence or absence of inhibitors. Images were acquired using a PlanApo 20 (0.75 numerical aperture) objective and a Photometrics CoolSnap ES camera on a Nikon Eclipse TE2000U microscopy system and wound closure quantified.

HaCat keratinocytes = assay: scratch wound haptotaxis induced by LPA and clustering of α6β4 integrin; details: LPA + α6β4 clustered with mAb 3E1 and secondary antibody, AG825 10 μM, Iressa 1 μM
Source text: FIG. 6A-D. Sdc1 is required for HER2/α6β4-dependent HaCat keratinocyte migration. (FIG. 6A) HaCat keratinocytes deposit laminin 332 (LN332) and migrate upon this using α3β1 and α6β4 integrins to close a scratch wound in the monolayer when stimulated to undergo chemotaxis in response to EGF. Alternatively, migration is induced by clustering the integrin (using mAb 3E1 against the integrin+a secondary antibody to cluster the first antibody and thus the entire complex) in the presence of LPA. This mimics the clustering that occurs when the cells engage LN332 and is referred to as haptotaxis. […] (FIG. 6B) Haptotaxis, stimulated by LPA and clustering of α6β4 integrin as described in FIG. 6A, is blocked by antibody directed against the α3β1 integrin or by BM165 which targets the binding site for α3β1 in LN332. […] (FIG. 6C) The potential roles of Sdc1 or Sdc4 in haptotaxis is tested by silencing their expression, together with attempting to rescue with either wild-type mouse Sdc1 or Sdc4, or mouse mutants unable to engage the β4 cytoplasmic domain (mSdc1ΔC2 or mSdc4ΔC2). Haptotaxis is blocked by silencing endogenous Sdc1, and this cannot be rescued by Sdc1ΔC2 that fails to engage the α6β4 integrin. Silencing Sdc4 also disrupts migration, but this traces to its role in activity of the α3β1 integrin and not a role in engaging the α6β4 integrin, as it can be rescued by mSdc4ΔC2 that fails to associate with the α6β4 integrin. (FIG. 6D) Immunoprecipitation of either native mSdc4 or mSdc4[…]C2 confirms that the mSdc4ΔC2 mutant no longer associates with the α6β4 integrin, but does with the α3β1 integrin. […]
HaCat or MCF10A cells were grown to confluence on 48 well-plates were starved for 6 hr by serum deprivation followed by introduction of a scratch wound in the monolayer using 200 μl pipette tip. […] Images were acquired using a PlanApo 20 (0.75 numerical aperture) objective and a Photometrics CoolSnap ES camera on a Nikon Eclipse TE2000U microscopy system and wound closure quantified. […]

[2] = test system: MCF10A mammary epithelial cells; assay: scratch wound haptotaxis induced by clustering the α6β4 integrin; details: α6β4 integrin clustered
Experimental: FIG. 9. Sdc1 ectodomain fragments and β4 dominant-negative mutant specific for Sdc1/α6β4/HER2 block MCF10A mammary epithelial cell migration. Haptotaxis of MCF10A human mammary epithelial cells induced by clustering the α6β4 integrin in a scratch wound assay is used to test the efficacy of inhibitors that target the Sdc1 mechanism. Cells are incubated either with entire recombinant syndecan ectodomains (Sdc1 ectodomain (S1ED) or Sdc4 ectodomain (S4ED) as a control), or an active fragment of mouse S1ED (S1ED^200-252) containing the inhibitory site.
as §1
The inventor used this assay to further truncate the S1ED recombinant proteins in order to find the smallest peptide that retains full inhibitory activity (e.g., SSTNHER2). The inventor tested mouse and human S1ED and find that they compete equally. […]

A431 cells = assay: A431 cell attachment and spreading on LN332; details: 2 hr, mAb13 30 μg/ml, heparinase III 0.4 CU/ml, Sdc1 siRNA 100 nM
Experimental: FIGS. 2A-E. Requirement of syndecan-1 for A431 cell spreading on LN332. A431 […] cells plated on slides coated with 10 μg/ml LN332 (FIG. 2A) without treatment; (FIG. 2B) with blocking antibody 3E1 to α6β4; (FIG. 2C) prior treatment with heparinase III; or (FIG. 2D) prior treatment with siRNA specific for human Sdc1. (FIG. 2E) Quantification of spread cells plated on LN332 and treated with blocking antibody to β1 integrin (mAb13 30 μg/ml) or control IgG (20 μg/ml), 3E1 blocking antibody (20 ug/ml) to β4 integrin, heparinase III (0.4 CU/ml) or human Sdc1 siRNA (100 nM). Data represent triplicate experiments +/−S.D. (Wang et al., 2010).
Nitrocellulose-coated 10-well glass slides (Erie Scientific, Portsmouth, N.H.) were prepared as described by Beauvais and. Rapraeger (2010). Wells of slide were coated at 37° C. for 2 h with mAb 3E1 (3 μg/ml), diluted in phosphate-buffered saline (CMF-PBS: 135 mM NaCl, 2.7 mM KCl, 10.2 mM Na2HPO47H2O, and 1.75 mM KH2PO4, pH 7.4), and blocked with serum-free Hepes-buffered DMEM (pH 7.4) containing 0.1% heat-denatured bovine serum albumin (plating medium). Cells were lifted with trypsin (0.25% w/v), washed with DMEM, and regenerated in suspension for 1 h at 37° C. in DMEM containing 10% fetal bovine serum. Cells were then plated in wells (50 μl/well) in plating medium at 10^5 cells/ml. […]

Molecule | competitive (inhibitory) activity on haptotactic migration [1] | haptotaxis (migration to close a scratch wound) (HaCat keratinocytes) | other results
214-240: truncated synthetic peptide, amino acids 214-240 of human Sdc1 (ETSGENTAVVAVEPDRRNQSPVDQGAT; UniProt P18827 214-240, looked up, fragment) | loss of activity |  | 
COc1cc(/C=C(\C#N)C(N)=O)cc(CSc2nc3ccccc3s2)c1O [AG825] |  | blocks migration | 
COc1cc2ncnc(Nc3ccc(F)c(Cl)c3)c2cc1OCCCN1CCOCC1 [Iressa] |  | without effect | 
210-236: truncated synthetic peptide, amino acids 210-236 of human Sdc1 (DFTFETSGENTAVVAVEPDRRNQSPVD; UniProt P18827 210-236, looked up, fragment) | loss of activity |  | 
S1ED^200-252: active fragment of mouse S1ED containing the inhibitory site, recombinant fusion protein (QLPAGEGSGEQDFTFETSGENTAVAAVEPGLRNQPPVDEGATGASQSLLDRKE; also: recombinant fusion protein, partner not given here; UniProt P18828 200-252, looked up, fragment) |  |  | haptotaxis (migration to close a scratch wound) [2]: competes for haptotaxis
heparinase: enzyme treatment that blocks the ability of Sdc1 to bind LN332 (protein, UniProt Q59289 25-659, looked up) Heparin-sulfate lyase: QSSSITRKDFDHINLEYSGLEKVNKAVAAGNYDDAAKALLAYYREKSKAREPDFSNAEKPADIRQPIDKVTREMADKALVHQFQPHKGYGYFDYGKDINWQMWPVKDNEVRWQLHRVKWWQAMALVYHATGDEKYAREWVYQYSDWARKNPLGLSQDNDKFVWRPLEVSDRVQSLPPTFSLFVNSPAFTPAFLMEFLNSYHQQADYLSTHYAEQGNHRLFEAQRNLFAGVSFPEFKDSPRWRQTGISVLNTEIKKQVYADGMQFELSPIYHVAAIDIFLKAYGSAKRVNLEKEFPQSYVQTVENMIMALISISLPDYNTPMFGDSWITDKNFRMAQFASWARVFPANQAIKYFATDGKQGKAPNFLSKALSNAGFYTFRSGWDKNATVMVLKASPPGEFHAQPDNGTFELFIKGRNFTPDAGVFVYSGDEAIMKLRNWYRQTRIHSTLTLDNQNMVITKARQNKWETGNNLDVLTYTNPSYPNLDHQRSVLFINKKYFLVIDRAIGEATGNLGVHWQLKEDSNPVFDKTKNRVYTTYRDGNNLMIQSLNADRTSLNEEEGKVSYVYNKELKRPAFVFEKPKKNAGTQNFVSIVYPYDGQKAPEISIRENKGNDFEKGKLNLTLTINGKQQLVLVP |  |  | cell spreading on LN332 (A431 cells): disrupted
